Where two headings read alike, the source gives them in different places.
Tests used:
Type in all cases: biochemical
mTOR = molecular target: T1, mTOR (Homo sapiens, UniProt P42345); test: mTOR kinase inhibition assay
T1 construct: purchased Invitrogen
Protocol: The compounds described herein and any other mTorC1/mTorC2 inhibitors known in the art can be tested against recombinant mTOR (Invitrogen) in an assay containing 50 mM HEPES, pH 7.5, 1 mM EGTA, 10 mM MgCl2, 2.5 mM, 0.01% Tween, 10 μM ATP (2.5 μCi of μ-32P-ATP), and 3 mg/mL BSA. Rat recombinant PHAS-1/4EBP1 (Calbiochem; 2 mg/mL) is used as a substrate. Reactions are terminated by spotting onto nitrocellulose, which is washed with 1M NaCl/1% phosphoric acid (approximately 6 times, 5-10 minutes each). Sheets are dried and the transferred radioactivity quantitated by phosphorimaging.
For instance, one can use Invitrogen's LanthaScreen™ Kinase assay to test the inhibitors of mTOR disclosed herein. This assay is a time resolved FRET platform that measures the phosphorylation of GFP labeled 4EBP1 by mTOR kinase. The kinase reaction is performed in a white 384 well microtitre plate. The total reaction volume is 20 μl per well and the reaction buffer composition is 50 mM HEPES pH7.5, 0.01% Polysorbate 20, 1 mM EGTA, 10 mM MnCl2, and 2 mM DTT. In the first step, each well receives 2 ul of test compound in 20% dimethylsulphoxide resulting in a 2% DMSO final concentration. Next, 8ul of mTOR diluted in reaction buffer is added per well for a 60 ng/ml final concentration. To start the reaction, 10 ul of an ATP/GFP-4EBP1 mixture (diluted in reaction buffer) is added per well for a final concentration of 10 μM ATP and 0.5 μM GFP-4EBP1. The plate is sealed and incubated for 1 hour at room temperature. […] The plate is sealed, incubated for 1 hour at room temperature, and then read on a plate reader set up for LanthaScreen™ TR-FRET. Data is analyzed and IC50s are generated using GraphPad Prism 5.

PI3K α = PI3K α (Homo sapiens, UniProt P42336); test: PI3K α kinase assay
PI3K δ = PI3K δ (Homo sapiens, UniProt O00329); test: PI3K δ kinase assay
PI3K γ = PI3K γ (Homo sapiens, UniProt P48736); test: PI3K γ kinase assay
PI3K β = PI3K β (Homo sapiens, UniProt P42338); test: PI3K β kinase assay
Chain of PI3K β (P42338 whole entry, species assumed): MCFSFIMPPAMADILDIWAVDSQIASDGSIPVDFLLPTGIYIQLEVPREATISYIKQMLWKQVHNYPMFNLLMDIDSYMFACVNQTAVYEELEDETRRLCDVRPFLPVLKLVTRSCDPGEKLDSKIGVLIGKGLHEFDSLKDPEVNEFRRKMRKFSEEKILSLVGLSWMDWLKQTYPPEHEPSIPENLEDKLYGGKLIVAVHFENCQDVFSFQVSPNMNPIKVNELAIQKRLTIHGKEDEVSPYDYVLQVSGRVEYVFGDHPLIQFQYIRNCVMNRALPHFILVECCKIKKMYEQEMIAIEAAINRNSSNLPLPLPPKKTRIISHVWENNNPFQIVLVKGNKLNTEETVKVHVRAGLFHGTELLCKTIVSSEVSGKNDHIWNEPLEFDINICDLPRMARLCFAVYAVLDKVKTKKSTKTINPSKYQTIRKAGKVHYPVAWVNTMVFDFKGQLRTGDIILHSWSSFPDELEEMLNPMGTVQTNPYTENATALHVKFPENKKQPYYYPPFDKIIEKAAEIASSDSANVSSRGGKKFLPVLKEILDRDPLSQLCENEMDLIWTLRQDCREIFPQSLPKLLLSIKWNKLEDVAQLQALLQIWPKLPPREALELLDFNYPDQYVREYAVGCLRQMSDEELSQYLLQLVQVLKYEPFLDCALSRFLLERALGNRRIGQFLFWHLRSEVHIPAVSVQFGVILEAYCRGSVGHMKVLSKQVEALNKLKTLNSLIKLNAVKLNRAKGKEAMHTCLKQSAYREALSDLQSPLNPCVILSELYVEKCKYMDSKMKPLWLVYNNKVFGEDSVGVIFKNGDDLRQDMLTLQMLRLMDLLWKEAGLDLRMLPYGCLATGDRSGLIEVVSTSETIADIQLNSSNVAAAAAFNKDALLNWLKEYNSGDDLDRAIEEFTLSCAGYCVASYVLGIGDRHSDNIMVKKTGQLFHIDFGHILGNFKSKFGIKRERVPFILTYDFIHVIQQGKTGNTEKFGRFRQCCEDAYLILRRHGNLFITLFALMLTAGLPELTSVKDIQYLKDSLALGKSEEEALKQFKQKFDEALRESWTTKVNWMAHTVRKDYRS
Chain of PI3K β (P27986 whole entry partner, species assumed): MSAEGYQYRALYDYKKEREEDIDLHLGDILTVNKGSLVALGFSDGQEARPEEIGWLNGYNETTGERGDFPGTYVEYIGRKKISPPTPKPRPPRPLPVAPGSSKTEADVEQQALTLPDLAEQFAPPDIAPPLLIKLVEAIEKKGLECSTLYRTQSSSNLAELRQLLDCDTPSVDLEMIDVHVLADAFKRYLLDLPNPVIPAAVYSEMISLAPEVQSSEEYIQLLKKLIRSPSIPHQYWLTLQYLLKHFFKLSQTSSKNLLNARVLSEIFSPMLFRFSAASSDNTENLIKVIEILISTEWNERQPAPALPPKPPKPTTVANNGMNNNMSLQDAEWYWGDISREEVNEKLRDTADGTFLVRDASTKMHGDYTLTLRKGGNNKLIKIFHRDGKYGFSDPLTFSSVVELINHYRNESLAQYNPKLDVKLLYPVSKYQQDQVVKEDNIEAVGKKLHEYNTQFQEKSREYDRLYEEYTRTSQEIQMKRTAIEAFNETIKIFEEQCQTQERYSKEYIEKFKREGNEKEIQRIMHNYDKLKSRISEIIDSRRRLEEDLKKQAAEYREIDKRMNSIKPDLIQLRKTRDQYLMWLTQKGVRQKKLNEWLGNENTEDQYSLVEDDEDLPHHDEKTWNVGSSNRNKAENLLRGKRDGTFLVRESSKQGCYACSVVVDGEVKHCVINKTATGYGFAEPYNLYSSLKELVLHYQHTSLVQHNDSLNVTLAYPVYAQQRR

Chain of PI3K γ (P48736 whole entry, species assumed): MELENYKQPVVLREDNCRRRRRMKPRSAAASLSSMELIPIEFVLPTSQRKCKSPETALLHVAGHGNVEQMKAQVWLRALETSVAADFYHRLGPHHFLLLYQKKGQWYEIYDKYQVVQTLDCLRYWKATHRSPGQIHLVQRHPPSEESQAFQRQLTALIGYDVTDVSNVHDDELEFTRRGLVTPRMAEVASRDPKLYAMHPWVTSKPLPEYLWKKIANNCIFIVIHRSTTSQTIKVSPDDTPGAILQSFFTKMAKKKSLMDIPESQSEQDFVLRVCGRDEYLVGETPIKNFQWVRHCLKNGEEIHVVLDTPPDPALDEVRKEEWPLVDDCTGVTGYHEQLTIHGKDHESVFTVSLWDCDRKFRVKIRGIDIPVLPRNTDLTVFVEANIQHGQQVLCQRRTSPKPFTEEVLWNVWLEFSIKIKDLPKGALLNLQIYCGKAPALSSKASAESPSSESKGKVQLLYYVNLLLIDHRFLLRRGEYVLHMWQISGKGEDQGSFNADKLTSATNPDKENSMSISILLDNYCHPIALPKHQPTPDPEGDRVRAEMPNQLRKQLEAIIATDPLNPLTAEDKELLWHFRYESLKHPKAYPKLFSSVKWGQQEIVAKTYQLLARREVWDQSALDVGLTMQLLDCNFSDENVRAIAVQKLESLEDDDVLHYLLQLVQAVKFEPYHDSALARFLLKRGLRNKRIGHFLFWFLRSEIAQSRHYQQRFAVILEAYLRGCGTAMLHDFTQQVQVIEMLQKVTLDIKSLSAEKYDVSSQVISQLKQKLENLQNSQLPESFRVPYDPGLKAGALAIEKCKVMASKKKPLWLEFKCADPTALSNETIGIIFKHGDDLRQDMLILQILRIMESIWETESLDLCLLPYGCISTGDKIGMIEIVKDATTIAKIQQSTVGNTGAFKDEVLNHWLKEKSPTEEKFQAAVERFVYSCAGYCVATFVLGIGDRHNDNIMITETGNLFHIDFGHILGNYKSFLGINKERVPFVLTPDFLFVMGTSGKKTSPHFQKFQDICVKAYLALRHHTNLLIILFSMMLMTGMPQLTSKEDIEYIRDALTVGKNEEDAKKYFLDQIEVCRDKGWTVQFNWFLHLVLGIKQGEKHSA
Chain of PI3K α (P42336 whole entry, species assumed): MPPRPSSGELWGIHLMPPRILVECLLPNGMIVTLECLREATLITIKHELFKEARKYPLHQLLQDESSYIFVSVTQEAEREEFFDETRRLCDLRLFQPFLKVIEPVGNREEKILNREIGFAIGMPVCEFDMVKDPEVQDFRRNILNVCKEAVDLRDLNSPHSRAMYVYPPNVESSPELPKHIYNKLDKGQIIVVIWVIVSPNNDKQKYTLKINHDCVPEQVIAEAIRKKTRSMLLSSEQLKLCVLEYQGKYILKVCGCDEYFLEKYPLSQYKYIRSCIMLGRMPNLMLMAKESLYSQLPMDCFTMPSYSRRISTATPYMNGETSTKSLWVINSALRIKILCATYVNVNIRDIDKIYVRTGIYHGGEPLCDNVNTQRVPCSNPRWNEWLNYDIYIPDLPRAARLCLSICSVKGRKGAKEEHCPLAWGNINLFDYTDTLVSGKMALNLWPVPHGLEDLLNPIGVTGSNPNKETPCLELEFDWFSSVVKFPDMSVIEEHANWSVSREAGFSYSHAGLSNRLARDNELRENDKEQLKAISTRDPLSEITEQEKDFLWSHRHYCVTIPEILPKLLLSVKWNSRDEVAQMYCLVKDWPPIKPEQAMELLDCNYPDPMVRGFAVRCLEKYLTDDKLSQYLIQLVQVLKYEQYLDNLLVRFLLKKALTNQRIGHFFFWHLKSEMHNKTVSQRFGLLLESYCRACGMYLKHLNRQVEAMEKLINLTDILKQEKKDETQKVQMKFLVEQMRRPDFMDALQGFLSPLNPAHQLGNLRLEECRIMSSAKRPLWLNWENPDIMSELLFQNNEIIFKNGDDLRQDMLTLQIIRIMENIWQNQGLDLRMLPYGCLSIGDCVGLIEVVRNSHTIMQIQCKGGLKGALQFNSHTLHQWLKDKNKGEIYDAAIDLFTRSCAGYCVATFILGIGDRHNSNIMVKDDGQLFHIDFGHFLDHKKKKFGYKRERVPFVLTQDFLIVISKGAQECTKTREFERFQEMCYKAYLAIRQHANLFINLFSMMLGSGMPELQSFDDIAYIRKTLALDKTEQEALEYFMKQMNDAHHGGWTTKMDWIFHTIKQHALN
Chain of PI3K α (P27986 whole entry partner, species assumed): as the sequence (P27986 whole entry partner, species assumed) above
Chain of PI3K δ (O00329 whole entry, species assumed): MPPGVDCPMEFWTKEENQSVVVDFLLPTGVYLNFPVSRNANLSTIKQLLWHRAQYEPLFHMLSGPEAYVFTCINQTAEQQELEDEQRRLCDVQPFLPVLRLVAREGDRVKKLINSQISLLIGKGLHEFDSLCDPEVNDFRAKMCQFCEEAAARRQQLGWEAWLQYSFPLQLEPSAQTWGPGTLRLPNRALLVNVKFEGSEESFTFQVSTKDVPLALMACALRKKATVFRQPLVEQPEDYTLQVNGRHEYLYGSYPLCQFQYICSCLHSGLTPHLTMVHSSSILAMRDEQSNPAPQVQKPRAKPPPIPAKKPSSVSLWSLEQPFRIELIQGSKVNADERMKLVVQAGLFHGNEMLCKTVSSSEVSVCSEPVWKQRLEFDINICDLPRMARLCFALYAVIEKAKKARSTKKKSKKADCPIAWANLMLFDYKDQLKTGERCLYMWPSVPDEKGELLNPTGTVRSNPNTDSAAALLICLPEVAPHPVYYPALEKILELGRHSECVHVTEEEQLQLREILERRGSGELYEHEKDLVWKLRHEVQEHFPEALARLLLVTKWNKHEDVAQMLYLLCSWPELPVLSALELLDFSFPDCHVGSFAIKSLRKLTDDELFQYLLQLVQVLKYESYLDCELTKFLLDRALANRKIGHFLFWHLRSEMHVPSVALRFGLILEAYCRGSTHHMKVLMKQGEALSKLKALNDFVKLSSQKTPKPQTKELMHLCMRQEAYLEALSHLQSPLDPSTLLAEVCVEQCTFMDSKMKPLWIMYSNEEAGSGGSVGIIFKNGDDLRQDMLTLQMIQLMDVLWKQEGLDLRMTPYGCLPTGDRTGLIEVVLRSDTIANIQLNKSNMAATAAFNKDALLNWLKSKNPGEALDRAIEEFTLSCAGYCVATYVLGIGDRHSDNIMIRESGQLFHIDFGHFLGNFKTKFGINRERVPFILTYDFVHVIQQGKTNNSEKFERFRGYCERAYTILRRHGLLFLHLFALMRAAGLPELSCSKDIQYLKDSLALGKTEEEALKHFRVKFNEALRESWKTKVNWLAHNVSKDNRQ
Chain of PI3K δ (P27986 whole entry partner, species assumed): as the sequence (P27986 whole entry partner, species assumed) above

SMILES | IC50 (mTOR; Table 2, read-out: mTORC IC50) | IC50 (PI3K α; Table 2) | IC50 (PI3K δ; Table 2) | other results
CC(C)n1nc(-c2cc3cc(F)ccc3[nH]2)c2c(NC(=O)N(C)C)ncnc21 [Compound 2] | > 0.5 µM | – | – | –
CC(=O)Nc1nc2ccc(-c3nn(C(C)C)c4ncnc(N)c34)cc2o1 [Compound 3] | – | – | – | IC50 (PI3K α; Table 1): > 10 µM
CC(C)n1nc(-c2cc3cc(F)ccc3[nH]2)c2c(N)ncnc21 [Compound 3] | 0.1 to 0.5 µM | > 0.5 µM | – | –
CC(C)n1nc(-c2cc3cc(C#N)ccc3[nH]2)c2c(N)ncnc21 [Compound 4] | > 0.5 µM | > 0.5 µM | – | –
COc1ccc2[nH]c(-c3nn(C(C)C)c4ncnc(N)c34)cc2c1 [Compound 5] | > 0.5 µM | > 0.5 µM | – | –
CC(C)n1nc(-c2cc3ccccc3n2C)c2c(N)ncnc21 [Compound 6] | > 0.5 µM | > 0.5 µM | – | –
CC(C)n1nc(-c2cc3ccccc3[nH]2)c2c(N)ncnc21 [Compound 7] | 0.05 to 0.1 µM | > 0.5 µM | – | –
COc1ccc2cc(-c3nn(C(C)C)c4ncnc(N)c34)[nH]c2c1 [Compound 8] | > 0.5 µM | > 0.5 µM | – | –
CC(C)n1nc(-c2cc3c(Cl)cccc3[nH]2)c2c(N)ncnc21 [Compound 9] | 0.025 to 0.05 µM | > 0.5 µM | – | –
COc1cccc2cc(-c3nn(C(C)C)c4ncnc(N)c34)[nH]c12 [Compound 10] | 0.01 to 0.025 µM | – | – | –
CNc1noc2cc(-c3nn(C(C)C)c4ncnc(N)c34)ccc12 [Compound 13] | – | – | – | IC50 (PI3K δ; Table 1): < 1 µM; IC50 (PI3K α; Table 1): < 10 µM; IC50 (mTOR; Table 1, read-out: mTOR IC50): < 10 µM; IC50 (PI3K γ; Table 1): < 1 µM
COc1cc(Cl)c2[nH]c(-c3nn(C(C)C)c4ncnc(N)c34)cc2c1 [Compound 13] | > 0.5 µM | > 0.5 µM | – | –
CC(C)n1nc(-c2ccc3c(NC4CC4)noc3c2)c2c(N)ncnc21 [Compound 14] | – | – | – | IC50 (PI3K δ; Table 1): < 10 µM; IC50 (PI3K α; Table 1): < 10 µM; IC50 (mTOR; Table 1, read-out: mTOR IC50): < 10 µM
COc1cc(F)c2[nH]c(-c3nn(C(C)C)c4ncnc(N)c34)cc2c1 [Compound 14] | > 0.5 µM | > 0.5 µM | – | –
CC(C)n1nc(-c2ccc3onc(NC4CC4)c3c2)c2c(N)ncnc21 [Compound 16] | – | – | – | IC50 (PI3K δ; Table 1): > 10 µM; IC50 (PI3K α; Table 1): > 10 µM; IC50 (mTOR; Table 1, read-out: mTOR IC50): > 10 µM
CC(C)n1nc(-c2cc3cc(Cl)ccc3[nH]2)c2c(N)ncnc21 [Compound 17] | > 0.5 µM | > 0.5 µM | – | –
Nc1noc2ccc(-c3nn(CC(=O)N4CCOCC4)c4ncnc(N)c34)cc12 [Compound 17] | – | – | – | IC50 (PI3K δ; Table 1): > 10 µM; IC50 (PI3K α; Table 1): > 10 µM; IC50 (mTOR; Table 1, read-out: mTOR IC50): > 10 µM; IC50 (PI3K γ; Table 1): > 10 µM
COc1ccc2[nH]c(-c3nn(C(C)C)c4ncnc(N)c34)cc2n1 [Compound 18] | > 0.5 µM | – | – | –
COC(=O)Nc1noc2ccc(-c3nn(C(C)C)c4ncnc(N)c34)cc12 [Compound 19] | – | – | – | IC50 (PI3K δ; Table 1): > 10 µM; IC50 (PI3K α; Table 1): > 10 µM; IC50 (mTOR; Table 1, read-out: mTOR IC50): < 10 µM; IC50 (PI3K β; Table 1): > 10 µM
COc1cnc2[nH]c(-c3nn(C(C)C)c4ncnc(N)c34)cc2c1 [Compound 19] | > 0.5 µM | > 0.5 µM | – | –
CC(C)n1nc(-c2cc3cnccc3[nH]2)c2c(N)ncnc21 [Compound 20] | > 0.5 µM | > 0.5 µM | – | –
COC(=O)Nc1noc2cc(-c3nn(C(C)C)c4ncnc(N)c34)ccc12 [Compound 20] | – | – | – | IC50 (PI3K δ; Table 1): < 10 µM; IC50 (PI3K α; Table 1): < 10 µM; IC50 (mTOR; Table 1, read-out: mTOR IC50): < 10 µM; IC50 (PI3K β; Table 1): > 10 µM
CC(C)n1nc(-c2cc3cc(C(N)=O)ccc3[nH]2)c2c(N)ncnc21 [Compound 23] | > 0.5 µM | > 0.5 µM | – | –

SMILES | IC50 (mTOR; Table 2, read-out: mTORC IC50) | IC50 (PI3K α; Table 2) | IC50 (PI3K δ; Table 2) | other results
Nc1nc2cc(-c3nn(C4CC(O)C4)c4ncnc(N)c34)ccc2o1 (stereo not drawn) [Compound 26] | – | – | – | IC50 (PI3K α; Table 1): < 0.1 µM; IC50 (PI3K γ; Table 1): < 0.1 µM
CCOC(=O)Cn1nc(-c2cc3cc(O)ccc3[nH]2)c2c(N)ncnc21 [Compound 28] | 0.1 to 0.5 µM | > 0.5 µM | > 0.5 µM | IC50 (PI3K β; Table 2): > 0.5 µM
COc1cc2cc(-c3nn(C(C)C)c4ncnc(N)c34)[nH]c2cc1Cl [Compound 29] | > 0.5 µM | – | – | –
CC(=O)N1CCC(n2nc(-c3cc4cc(O)ccc4[nH]3)c3c(N)ncnc32)CC1 [Compound 30] | 0.01 to 0.025 µM | > 0.5 µM | > 0.5 µM | IC50 (PI3K β; Table 2): > 0.5 µM
Nc1ncnc2c1c(-c1cc3cc(O)ccc3[nH]1)nn2C1CCN(C(=O)C2CC2)CC1 [Compound 31] | 0.01 to 0.025 µM | > 0.5 µM | 0.1 to 0.5 µM | IC50 (PI3K β; Table 2): > 0.5 µM
CC(C)n1nc(-c2cc3cc(O)c(Cl)cc3[nH]2)c2c(N)ncnc21 [Compound 32] | 0.1 to 0.5 µM | > 0.5 µM | > 0.5 µM | IC50 (PI3K γ; Table 2): > 0.5 µM
Nc1ncnc2c1c(-c1cc3cc(O)ccc3[nH]1)nn2CCN1CCOCC1 [Compound 33] | 0.1 to 0.5 µM | > 0.5 µM | > 0.5 µM | IC50 (PI3K γ; Table 2): > 0.5 µM
Nc1ncnc2c1c(-c1cc3cc(O)ccc3[nH]1)nn2CC(=O)N1CCOCC1 [Compound 34] | > 0.5 µM | > 0.5 µM | > 0.5 µM | IC50 (PI3K γ; Table 2): > 0.5 µM
CNC(=O)Cn1nc(-c2cc3cc(O)ccc3[nH]2)c2c(N)ncnc21 [Compound 35] | > 0.5 µM | > 0.5 µM | > 0.5 µM | IC50 (PI3K γ; Table 2): > 0.5 µM
CC(C)n1nc(-c2cc3c(O)cccc3[nH]2)c2c(N)ncnc21 [Compound 37] | > 0.5 µM | 0.1 to 0.5 µM | 0.1 to 0.5 µM | IC50 (PI3K γ; Table 2): 0.1 to 0.5 µM
Nc1ncnc2c1c(-c1cc3cc(O)ccc3[nH]1)nn2Cc1cccnc1 [Compound 38] | 0.1 to 0.5 µM | > 0.5 µM | > 0.5 µM | IC50 (PI3K γ; Table 2): > 0.5 µM
CC(C)n1nc(-c2cc3c(Cl)ccc(O)c3[nH]2)c2c(N)ncnc21 [Compound 39] | 0.005 to 0.01 µM | > 0.5 µM | > 0.5 µM | IC50 (PI3K γ; Table 2): > 0.5 µM
COCCn1nc(-c2cc3cc(O)ccc3[nH]2)c2c(N)ncnc21 [Compound 40] | 0.05 to 0.1 µM | > 0.5 µM | > 0.5 µM | IC50 (PI3K γ; Table 2): > 0.5 µM
Nc1ncnc2c1c(-c1cc3cc(O)ccc3[nH]1)nn2C1CCOCC1 [Compound 42] | < 0.005 µM | > 0.5 µM | 0.05 to 0.1 µM | IC50 (PI3K β; Table 2): > 0.5 µM
CNC(=O)CCn1nc(-c2cc3cc(O)ccc3[nH]2)c2c(N)ncnc21 [Compound 43] | > 0.5 µM | > 0.5 µM | > 0.5 µM | IC50 (PI3K β; Table 2): > 0.5 µM
Cc1nccn1CCn1nc(-c2cc3cc(O)ccc3[nH]2)c2c(N)ncnc21 [Compound 44] | 0.05 to 0.1 µM | > 0.5 µM | > 0.5 µM | IC50 (PI3K β; Table 2): > 0.5 µM
CC(C)n1nc(-c2cc3cc(O)ccc3[nH]2)c2c(N)nccc21 [Compound 45] | > 0.5 µM | – | – | –
Nc1ncnc2c1c(-c1cc3cc(O)ccc3[nH]1)nn2C1CC(=O)C1 [Compound 53] | 0.05 to 0.1 µM | > 0.5 µM | – | IC50 (PI3K γ; Table 2): > 0.5 µM; IC50 (PI3K β; Table 2): > 0.5 µM
Nc1ncnc2c1c(-c1cc3cc(O)ccc3[nH]1)nn2C1CC(O)C1 (stereo not drawn) [Compound 54] | 0.01 to 0.025 µM | > 0.5 µM | – | IC50 (PI3K γ; Table 2): > 0.5 µM; IC50 (PI3K β; Table 2): > 0.5 µM
CC(C)N1CCC(n2nc(-c3cc4cc(O)ccc4[nH]3)c3c(N)ncnc32)CC1 [Compound 55] | 0.1 to 0.5 µM | > 0.5 µM | – | IC50 (PI3K γ; Table 2): > 0.5 µM; IC50 (PI3K β; Table 2): > 0.5 µM
CC(C)N1CCC(n2nc(-c3cc4cc(O)cc(Cl)c4[nH]3)c3c(N)ncnc32)CC1 [Compound 56] | > 0.5 µM | > 0.5 µM | – | IC50 (PI3K γ; Table 2): > 0.5 µM; IC50 (PI3K β; Table 2): > 0.5 µM
Nc1ncnc2c1c(-c1cc3cc(O)ccc3[nH]1)nn2C1CCC(N2CCOCC2)CC1 (stereo not drawn) [Compound 57] | 0.01 to 0.025 µM | > 0.5 µM | – | IC50 (PI3K γ; Table 2): > 0.5 µM; IC50 (PI3K β; Table 2): > 0.5 µM

From patent US20130209543A1, “ENHANCED TREATMENT REGIMENS USING MTOR INHIBITORS” (Intellikine LLC, priority 2011, published 2013)
